Experimental data published in patent US20070128217A1 (priority 2003, published 2007).

Experiments:
[1] = test system: antibodies in sera from SARS patients (sera 1a, 1b, 2, 6, 37, 62, London, SARS-yellow, SARS-green); type: binding, human; set-up: Binding of serum 6 to linear peptides of protein X1 of SARS-CoV Urbani / Binding of serum 37 to linear peptides of protein X1 of SARS-CoV Urbani / Binding of serum 6 to looped/cyclic peptide (PEPSCAN-ELISA) / Binding of serum 37 to looped/cyclic peptide (PEPSCAN-ELISA) / Binding of serum 37 to looped/cyclic peptides of protein X1 of SARS-CoV Urbani / Binding of serum 6 to linear peptides of protein X2 / Binding of serum 37 to linear peptides of protein X2 / Binding of serum 37 to looped/cyclic peptides of protein X2 of SARS-CoV Urbani / Binding of serum 6 to linear peptides of protein M of SARS-CoV Urbani / Binding of serum 37 to linear peptides of protein M of SARS-CoV Urbani / Binding of serum 6 to looped/cyclic peptides of protein M of SARS-CoV Urbani / Binding of serum 37 to looped/cyclic peptides of protein M of SARS-CoV Urbani / Binding of serum 6 to linear peptides of protein X3 of SARS-CoV Urbani / Binding of serum 37 to linear peptides of protein X3 of SARS-CoV Urbani / Binding of serum 37 to looped/cyclic peptides of protein X3 of SARS-CoV Urbani / Binding of serum 6 to linear peptides of protein X4 of SARS-CoV Urbani / Binding of serum 37 to linear peptides of protein X4 of SARS-CoV Urbani / Binding of serum 37 to looped/cyclic peptides of protein X4 of SARS-CoV Urbani / Binding of serum 6 to linear peptides of protein X5 of SARS-CoV Urbani / Binding of serum 37 to linear peptides of protein X5 of SARS-CoV Urbani / Binding of serum 37 to looped/cyclic peptides of protein X5 of SARS-CoV Urbani / Binding of serum 6 to linear peptides of protein N of SARS-CoV Urbani / Binding of serum 37 to linear peptides of protein N of SARS-CoV Urbani / Binding of serum 6 to linear peptide (PEPSCAN-ELISA) / Binding of serum 1a to looped/cyclic peptides of protein N of SARS-CoV Urbani / Binding of serum 1b to looped/cyclic peptides of protein N of SARS-CoV Urbani / Binding of serum 2 to looped/cyclic peptides of protein N of SARS-CoV Urbani / Binding of serum 6 to looped/cyclic peptides of protein N of SARS-CoV Urbani / Binding of serum 37 to looped/cyclic peptides of protein N of SARS-CoV Urbani / Binding of serum 62 to looped/cyclic peptides of protein N of SARS-CoV Urbani / Binding of serum London to looped/cyclic peptides of protein N of SARS-CoV Urbani / Binding of serum SARS-green to looped/cyclic peptides of protein N of SARS-CoV Urbani: unit not given here
[2] = test system: control sera (pooled serum of ten healthy LUMC hospital workers; commercial negative donor pooled serum from the Dutch bloodbank); type: binding, human; set-up: Binding of Control serum LUMC to linear peptides / Binding of Control serum Blood-bank to linear peptides / Binding of Control serum LUMC to looped peptides / Binding of Control Serum Blood-Bank to Looped peptides / Binding of Control serum LUMC to linear peptides of the protein M of SARS-CoV Urbani / Binding of Control serum Blood-bank to linear peptides of the protein M of SARS-CoV Urbani / Binding of Control serum LUMC to looped peptides of the protein M of SARS-CoV Urbani / Binding of Control Serum Blood-Bank to Looped peptides of the protein M of SARS-CoV Urbani: unit not given here
[3] = test system: rabbit serum obtained by immunizing a rabbit with the SARS-CoV strain Frankfurt 1; type: binding; set-up: Binding of a rabbit serum to linear peptides / Binding of a rabbit serum to looped peptides / Rabbit serum linear peptides / Rabbit serum looped peptides / Binding of a rabbit serum to linear peptides of protein N of SARS-CoV Urbani (Rabbit serum linear peptides) / Binding of a rabbit serum to looped/cyclic peptides of protein N of SARS-CoV Urbani (Rabbit serum looped peptides): unit not given here

Sequence: PKFTTSLSLHKLLQT
- Binding of serum 1a to linear peptides of protein X2 [1]: 0.6
- Binding of serum 1a to looped/cyclic peptides of protein X2 of SARS-CoV Urbani [1]: 0.5
- Binding of serum 1b to linear peptides of protein X2 [1]: 0.4
- Binding of serum 1b to looped/cyclic peptides of protein X2 of SARS-CoV Urbani [1]: 0.4
- Binding of serum 2 to linear peptides of protein X2 [1]: 0.5
- Binding of serum 2 to looped/cyclic peptides of protein X2 of SARS-CoV Urbani [1]: 0.3
- Binding of serum 6 to linear peptides of protein X2 [1]: 0.3
- Binding of serum 6 to looped/cyclic peptides of protein X2 of SARS-CoV Urbani [1]: 0.3
- Binding of serum 37 to linear peptides of protein X2 [1]: 0.5
- Binding of serum 37 to looped/cyclic peptides of protein X2 of SARS-CoV Urbani [1]: 0.4
- Binding of serum 62 to linear peptides of protein X2 [1]: 0.6
- Binding of serum 62 to looped/cyclic peptides of protein X2 of SARS-CoV Urbani [1]: 0.6
- Binding of serum London to linear peptides of protein X2 [1]: 0.4
- Binding of serum London to looped/cyclic peptides of protein X2 of SARS-CoV Urbani [1]: 0.3
- Binding of serum SARS-green to linear peptides of protein X2 [1]: 0.5
- Binding of serum SARS-green to looped/cyclic peptides of protein X2 of SARS-CoV Urbani [1]: 0.3
- Binding of serum SARS-yellow to linear peptides of protein X2 [1]: 0.3
- Binding of serum SARS-yellow to looped/cyclic peptides of protein X2 of SARS-CoV Urbani [1]: 0.3
- Binding of Control Serum Blood-Bank to Looped peptides [2]: 0.7
- Binding of Control serum Blood-bank to linear peptides [2]: 0.7
- Binding of Control serum LUMC to linear peptides [2]: 0.4
- Binding of Control serum LUMC to looped peptides [2]: 0.4
- Binding of a rabbit serum to linear peptides [3]: 0.2
- Binding of a rabbit serum to looped peptides [3]: 0.4

Sequence: GWLVIGVAFLAVFQS
- Binding of serum 1a to linear peptides of protein X1 of SARS-CoV Urbani [1]: 0.7
- Binding of serum 1a to looped/cyclic peptide (PEPSCAN-ELISA) [1]: 0.7
- Binding of serum 1b to linear peptides of protein X1 of SARS-CoV Urbani [1]: 0.6
- Binding of serum 1b to looped/cyclic peptide (PEPSCAN-ELISA) [1]: 0.5
- Binding of serum 2 to linear peptides of protein X1 of SARS-CoV Urbani [1]: 0.5
- Binding of serum 2 to looped/cyclic peptide (PEPSCAN-ELISA) [1]: 0.7
- Binding of serum 6 to linear peptides of protein X1 of SARS-CoV Urbani [1]: 0.5
- Binding of serum 6 to looped/cyclic peptide (PEPSCAN-ELISA) [1]: 0.4
- Binding of serum 37 to linear peptides of protein X1 of SARS-CoV Urbani [1]: 0.6
- Binding of serum 37 to looped/cyclic peptide (PEPSCAN-ELISA) [1]: 0.6
- Binding of serum 62 to linear peptides of protein X1 of SARS-CoV Urbani [1]: 0.6
- Binding of serum 62 to looped/cyclic peptide (PEPSCAN-ELISA) [1]: 0.8
- Binding of serum London to linear peptides of protein X1 of SARS-CoV Urbani [1]: 0.3
- Binding of serum London to looped/cyclic peptide (PEPSCAN-ELISA) [1]: 0.3
- Binding of serum SARS-green to linear peptides of protein X1 of SARS-CoV Urbani [1]: 0.2
- Binding of serum SARS-green to looped/cyclic peptide (PEPSCAN-ELISA) [1]: 0.4
- Binding of serum SARS-yellow to linear peptides of protein X1 of SARS-CoV Urbani [1]: 0.5
- Binding of serum SARS-yellow to looped/cyclic peptide (PEPSCAN-ELISA) [1]: 0.6
- Binding of Control Serum Blood-Bank to Looped peptides [2]: 0.8
- Binding of Control serum Blood-bank to linear peptides [2]: 0.5
- Binding of Control serum LUMC to linear peptides [2]: 0.6
- Binding of Control serum LUMC to looped peptides [2]: 0.7
- Binding of a rabbit serum to linear peptides [3]: 0.8
- Binding of a rabbit serum to looped peptides [3]: 0.6

Sequence: LLKTHRMCKYTQSTA
- Binding of serum 1a to linear peptides of protein X2 [1]: 0.8
- Binding of serum 1a to looped/cyclic peptides of protein X2 of SARS-CoV Urbani [1]: 0.4
- Binding of serum 1b to linear peptides of protein X2 [1]: 0.5
- Binding of serum 1b to looped/cyclic peptides of protein X2 of SARS-CoV Urbani [1]: 0.3
- Binding of serum 2 to linear peptides of protein X2 [1]: 0.6
- Binding of serum 2 to looped/cyclic peptides of protein X2 of SARS-CoV Urbani [1]: 0.2
- Binding of serum 6 to linear peptides of protein X2 [1]: 0.6
- Binding of serum 6 to looped/cyclic peptides of protein X2 of SARS-CoV Urbani [1]: 0.3
- Binding of serum 37 to linear peptides of protein X2 [1]: 0.7
- Binding of serum 37 to looped/cyclic peptides of protein X2 of SARS-CoV Urbani [1]: 0.2
- Binding of serum 62 to linear peptides of protein X2 [1]: 0.7
- Binding of serum 62 to looped/cyclic peptides of protein X2 of SARS-CoV Urbani [1]: 0.4
- Binding of serum London to linear peptides of protein X2 [1]: 0.5
- Binding of serum London to looped/cyclic peptides of protein X2 of SARS-CoV Urbani [1]: 0.2
- Binding of serum SARS-green to linear peptides of protein X2 [1]: 0.6
- Binding of serum SARS-green to looped/cyclic peptides of protein X2 of SARS-CoV Urbani [1]: 0.2
- Binding of serum SARS-yellow to linear peptides of protein X2 [1]: 0.8
- Binding of serum SARS-yellow to looped/cyclic peptides of protein X2 of SARS-CoV Urbani [1]: 0.2
- Binding of Control Serum Blood-Bank to Looped peptides [2]: 0.4
- Binding of Control serum Blood-bank to linear peptides [2]: 0.7
- Binding of Control serum LUMC to linear peptides [2]: 0.6
- Binding of Control serum LUMC to looped peptides [2]: 0.4
- Binding of a rabbit serum to linear peptides [3]: 0.5
- Binding of a rabbit serum to looped peptides [3]: 0.3

Sequence: ATATIPLQASLPFGW
- Binding of serum 1a to linear peptides of protein X1 of SARS-CoV Urbani [1]: 0.9
- Binding of serum 1a to looped/cyclic peptide (PEPSCAN-ELISA) [1]: 0.6
- Binding of serum 1b to linear peptides of protein X1 of SARS-CoV Urbani [1]: 0.7
- Binding of serum 1b to looped/cyclic peptide (PEPSCAN-ELISA) [1]: 0.5
- Binding of serum 2 to linear peptides of protein X1 of SARS-CoV Urbani [1]: 0.7
- Binding of serum 2 to looped/cyclic peptide (PEPSCAN-ELISA) [1]: 0.5
- Binding of serum 6 to linear peptides of protein X1 of SARS-CoV Urbani [1]: 0.7
- Binding of serum 6 to looped/cyclic peptide (PEPSCAN-ELISA) [1]: 0.5
- Binding of serum 37 to linear peptides of protein X1 of SARS-CoV Urbani [1]: 0.7
- Binding of serum 37 to looped/cyclic peptide (PEPSCAN-ELISA) [1]: 0.7
- Binding of serum 62 to linear peptides of protein X1 of SARS-CoV Urbani [1]: 0.8
- Binding of serum 62 to looped/cyclic peptide (PEPSCAN-ELISA) [1]: 0.7
- Binding of serum London to linear peptides of protein X1 of SARS-CoV Urbani [1]: 0.4
- Binding of serum London to looped/cyclic peptide (PEPSCAN-ELISA) [1]: 0.3
- Binding of serum SARS-green to linear peptides of protein X1 of SARS-CoV Urbani [1]: 0.4
- Binding of serum SARS-green to looped/cyclic peptide (PEPSCAN-ELISA) [1]: 0.3
- Binding of serum SARS-yellow to linear peptides of protein X1 of SARS-CoV Urbani [1]: 0.5
- Binding of serum SARS-yellow to looped/cyclic peptide (PEPSCAN-ELISA) [1]: 0.4
- Binding of Control Serum Blood-Bank to Looped peptides [2]: 0.8
- Binding of Control serum Blood-bank to linear peptides [2]: 0.9
- Binding of Control serum LUMC to linear peptides [2]: 0.7
- Binding of Control serum LUMC to looped peptides [2]: 0.7
- Binding of a rabbit serum to linear peptides [3]: 0.1
- Binding of a rabbit serum to looped peptides [3]: 0.6

Sequence: TAAFRDVLVVLNKRT
- Binding of serum 1a to linear peptides of protein X5 of SARS-CoV Urbani [1]: 0.5
- Binding of serum 1a to looped/cyclic peptides of protein X5 of SARS-CoV Urbani [1]: 0.7
- Binding of serum 1b to linear peptides of protein X5 of SARS-CoV Urbani [1]: 0.6
- Binding of serum 1b to looped/cyclic peptides of protein X5 of SARS-CoV Urbani [1]: 0.6
- Binding of serum 2 to linear peptides of protein X5 of SARS-CoV Urbani [1]: 0.6
- Binding of serum 2 to looped/cyclic peptides of protein X5 of SARS-CoV Urbani [1]: 0.7
- Binding of serum 6 to linear peptides of protein X5 of SARS-CoV Urbani [1]: 0.6
- Binding of serum 6 to looped/cyclic peptides of protein X5 of SARS-CoV Urbani [1]: 0.9
- Binding of serum 37 to linear peptides of protein X5 of SARS-CoV Urbani [1]: 0.5
- Binding of serum 37 to looped/cyclic peptides of protein X5 of SARS-CoV Urbani [1]: 0.6
- Binding of serum 62 to linear peptides of protein X5 of SARS-CoV Urbani [1]: 0.5
- Binding of serum 62 to looped/cyclic peptides of protein X5 of SARS-CoV Urbani [1]: 0.6
- Binding of serum London to linear peptides of protein X5 of SARS-CoV Urbani [1]: 0.5
- Binding of serum London to looped/cyclic peptides of protein X5 of SARS-CoV Urbani [1]: 1.1
- Binding of serum SARS-green to linear peptides of protein X5 of SARS-CoV Urbani [1]: 0.2
- Binding of serum SARS-green to looped/cyclic peptides of protein X5 of SARS-CoV Urbani [1]: 0.5
- Binding of serum SARS-yellow to linear peptides of protein X5 of SARS-CoV Urbani [1]: 0.7
- Binding of serum SARS-yellow to looped/cyclic peptides of protein X5 of SARS-CoV Urbani [1]: 0.5
- Binding of Control Serum Blood-Bank to Looped peptides [2]: 0.8
- Binding of Control serum Blood-bank to linear peptides [2]: 0.7
- Binding of Control serum LUMC to linear peptides [2]: 0.8
- Binding of Control serum LUMC to looped peptides [2]: 0.6
- Rabbit serum linear peptides [3]: 0.3
- Rabbit serum looped peptides [3]: 0.4
